Reference: patent US20210300940A1 (Merck Patent GmbH, priority 2018, published 2021)
Where a name gives a salt, the structure may show the parent alone.

Legend:
TLR7 = biological target: T1, TLR7 (Homo sapiens, UniProt Q9NYK1); assay: HEK/293 TLR7 Cell Assay; assay type: cell-based; settings: TLR7/NFKb HEK cells, R848 agonist 10 uM final concentration, Steady-Glo readout; read-out: TLR7 potency
T1 construct: expressed in transfected cells; host or cells: HEK/293 cells carrying TLR7 and an NF-kB luciferase reporter
T1 sequence (Q9NYK1 27-1049): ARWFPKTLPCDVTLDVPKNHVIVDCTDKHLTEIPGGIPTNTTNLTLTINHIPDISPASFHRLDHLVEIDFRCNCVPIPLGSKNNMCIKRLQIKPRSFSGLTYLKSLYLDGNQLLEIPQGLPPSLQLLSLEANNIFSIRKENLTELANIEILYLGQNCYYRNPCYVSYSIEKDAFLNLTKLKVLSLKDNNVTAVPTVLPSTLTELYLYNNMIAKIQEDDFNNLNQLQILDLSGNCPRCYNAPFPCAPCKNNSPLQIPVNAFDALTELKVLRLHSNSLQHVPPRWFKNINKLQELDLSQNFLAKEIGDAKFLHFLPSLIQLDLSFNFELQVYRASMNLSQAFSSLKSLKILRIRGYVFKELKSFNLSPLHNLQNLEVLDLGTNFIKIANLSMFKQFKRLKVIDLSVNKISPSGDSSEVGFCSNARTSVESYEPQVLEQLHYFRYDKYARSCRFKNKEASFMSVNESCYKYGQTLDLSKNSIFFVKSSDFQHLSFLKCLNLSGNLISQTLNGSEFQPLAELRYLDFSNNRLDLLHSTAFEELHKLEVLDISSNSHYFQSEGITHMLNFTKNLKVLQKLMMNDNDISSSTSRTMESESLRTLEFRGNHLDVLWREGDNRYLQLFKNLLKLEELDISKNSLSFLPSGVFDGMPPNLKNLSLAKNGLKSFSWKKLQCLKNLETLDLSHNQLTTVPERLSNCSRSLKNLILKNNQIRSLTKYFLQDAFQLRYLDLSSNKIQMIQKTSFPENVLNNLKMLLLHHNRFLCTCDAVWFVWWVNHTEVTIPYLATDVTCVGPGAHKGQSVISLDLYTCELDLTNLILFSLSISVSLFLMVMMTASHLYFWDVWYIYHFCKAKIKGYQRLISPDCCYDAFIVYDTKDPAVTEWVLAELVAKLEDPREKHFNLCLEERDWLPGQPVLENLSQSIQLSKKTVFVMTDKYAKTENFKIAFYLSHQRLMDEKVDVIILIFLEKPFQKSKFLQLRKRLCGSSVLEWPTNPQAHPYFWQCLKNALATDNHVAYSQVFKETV
Outline: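 Compounds added to HEK cells expressing TLR7 with an NFκB reporter 30 min ahead of 10 uM R848 challenge; luciferase signal (Steady-Glo) measured after 5 h, cells having been seeded 24 h earlier at 5000 per well.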

TLR8 = biological target: T2, TLR8 (Homo sapiens, UniProt Q9NR97); assay: HEK/293 TLR8 Cell Assay; assay type: cell-based; settings: HEK cells, R848 agonist 30 uM final concentration, Steady-Glo readout; read-out: TLR8 potency
T2 construct: expressed in transfected cells; host or cells: HEK/293 reporter cells (NF-kB luciferase)
T2 sequence (Q9NR97 27-1041): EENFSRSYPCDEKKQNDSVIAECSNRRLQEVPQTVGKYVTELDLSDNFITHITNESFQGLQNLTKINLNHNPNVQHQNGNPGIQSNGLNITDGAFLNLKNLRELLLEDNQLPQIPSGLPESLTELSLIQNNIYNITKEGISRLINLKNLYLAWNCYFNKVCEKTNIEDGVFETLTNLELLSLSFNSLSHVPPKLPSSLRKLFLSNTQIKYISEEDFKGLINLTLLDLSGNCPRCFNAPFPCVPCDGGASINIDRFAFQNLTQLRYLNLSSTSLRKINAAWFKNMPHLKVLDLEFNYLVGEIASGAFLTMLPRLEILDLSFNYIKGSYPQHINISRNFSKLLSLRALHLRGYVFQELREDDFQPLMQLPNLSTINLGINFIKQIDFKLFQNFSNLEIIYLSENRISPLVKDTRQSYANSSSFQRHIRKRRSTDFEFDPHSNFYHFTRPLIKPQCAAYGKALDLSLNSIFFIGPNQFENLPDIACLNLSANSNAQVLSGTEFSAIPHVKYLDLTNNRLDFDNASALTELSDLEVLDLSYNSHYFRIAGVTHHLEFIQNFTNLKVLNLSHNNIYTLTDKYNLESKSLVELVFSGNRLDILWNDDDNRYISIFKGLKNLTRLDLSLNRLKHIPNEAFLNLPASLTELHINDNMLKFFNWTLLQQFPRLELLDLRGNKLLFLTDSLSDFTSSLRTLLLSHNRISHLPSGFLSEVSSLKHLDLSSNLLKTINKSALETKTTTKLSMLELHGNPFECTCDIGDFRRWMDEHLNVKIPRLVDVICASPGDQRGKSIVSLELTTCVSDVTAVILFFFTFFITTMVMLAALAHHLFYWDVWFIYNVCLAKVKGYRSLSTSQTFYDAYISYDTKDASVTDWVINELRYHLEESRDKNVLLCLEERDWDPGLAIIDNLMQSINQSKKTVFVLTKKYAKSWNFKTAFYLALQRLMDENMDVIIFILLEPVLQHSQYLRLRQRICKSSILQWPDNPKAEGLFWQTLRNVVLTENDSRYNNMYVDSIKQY

SMILES | IC50 (TLR7) | IC50 (TLR8)
Cc1c(F)cc(N2C[C@H](NC(=O)CC3(O)CCN(C)CC3)C[C@H](C(F)(F)F)C2)c2cccnc12 [Example 68, hydrochloride] | < 75 nM | < 75 nM
C[C@H]1C[C@@H](NC2CS(=O)(=O)C2)CN(c2ccc(C(F)(F)F)c3ncccc23)C1 [Example 13, (1,1-Dioxo-1lambda6-thietan-3-yl)-[(3R,5S)-5-methyl-1-(8-trifluoromethyl-quinolin-5-yl)-piperidin-3-yl]-amine] | < 75 nM | < 75 nM
C[C@H]1C[C@@H](NC(=O)CC2(O)CCN(C)CC2)CN(c2ccc(C#N)c3nccnc23)C1 [Example 72, N-[(3R,5S)-1-(8-cyanoquinoxalin-5-yl)-5-methylpiperidin-3-yl]-2-(4-hydroxy-1-methylpiperidin-4-yl)acetamide hydrochloride] | < 75 nM | < 75 nM
C[C@@H]1CN(c2ccc(C#N)c3ncncc23)C[C@H](C(=O)NC2CCN(C)C3(CCC3)C2)O1 (stereo partly drawn) [Example 347, (2R,6R)-4-(8-Cyano-quinazolin-5-yl)-6-methyl-morpholine-2-carboxylic acid (5-methyl-5-aza-spiro[3.5]non-8-yl)-amide] | < 75 nM | < 75 nM
C[C@@H]1CN(c2ccc(C#N)c3nccnc23)C[C@H](CN2CC[C@@H](O)C2)O1 [Example 221, 8-[(2S,6R)-2-((R)-3-Hydroxy-pyrrolidin-1-ylmethyl)-6-methyl-morpholin-4-yl]-quinoxaline-5-carbonitrile] | < 75 nM | > 150 nM
N#Cc1ccc(N2C[C@H](N)C[C@H](C(F)(F)F)C2)c2ccc(=O)[nH]c12 [Example 388, 5-((3R,5S)-3-Amino-5-trifluoromethyl-piperidin-1-yl)-2-oxo-1,2-dihydro-quinoline-8-carbonitrile] | > 150 nM | > 150 nM
C[C@H]1C[C@@H](NCC(O)CO)CN(c2cnc(C#N)c3ncccc23)C1 (stereo partly drawn) [Example 35, 5-[(3R,5S)-3-(2,3-Dihydroxy-propylamino)-5-methyl-piperidin-1-yl]-naphthyridine-8-carbonitrile] | > 150 nM | > 150 nM
C[C@H]1C[C@@H](NC(=O)CC2CCN(CCO)CC2F)CN(c2cnc(C#N)c3ncccc23)C1 (stereo partly drawn) [Example 148, N-[(3R,5S)-1-(8-Cyano-[1,7]naphthyridin-5-yl)-5-methyl-piperidin-3-yl]-2-[3-fluoro-1-(2-hydroxy-ethyl)-piperidin-4-yl]-acetamide] | 75 to 150 nM | < 75 nM
C[C@H]1C[C@@H](NC(=O)[C@@H](N)C(C)(C)O)CN(c2ccc(C#N)c3nccnc23)C1 [Example 173, (S)-2-Amino-N-[(3R,5S)-1-(8-cyano-quinoxalin-5-yl)-5-methyl-piperidin-3-yl]-3-hydroxy-3-methyl-butyramide] | < 75 nM | < 75 nM
CC(C(=O)N[C@@H]1C[C@H](C)CN(c2cnc(C#N)c3nccnc23)C1)N1CCN(C)CC1 (stereo partly drawn) [Example 190, N-[(3R,5S)-1-(5-Cyano-pyrido[3,4-b]pyrazin-8-yl)-5-methyl-piperidin-3-yl]-2-(4-methyl-piperazin-1-yl)-propionamide] | 75 to 150 nM | < 75 nM
C[C@@H]1CN(c2ccc(C#N)c3nccnc23)C[C@H](C(=O)NC[C@@H](O)C(F)(F)F)O1 [Example 250, (2R,6R)-4-(8-Cyano-quinoxalin-5-yl)-6-methyl-morpholine-2-carboxylic acid ((R)-3,3,3-trifluoro-2-hydroxy-propyl)-amide] | < 75 nM | < 75 nM
C[C@H]1C[C@@H](NCC2(O)CCOCC2)CN(c2ccc(C(F)(F)F)c3nccnc23)C1 [Example 26, 4-{[(3R,5S)-5-Methyl-1-(8-trifluoromethyl-quinoxalin-5-yl)-piperidin-3-ylamino]-methyl}-tetrahydro-pyran-4-ol] | < 75 nM | < 75 nM
C[C@H]1C[C@@H](NC(=O)Cc2cnn(C)c2)CN(c2cc(F)c(C#N)c3ncccc23)C1 [Example 58, N-[(3R,5S)-1-(8-Cyano-7-fluoro-quinolin-5-yl)-5-methyl-piperidin-3-yl]-2-(1-methyl-1H-pyrazol-4-yl)-acetamide] | > 150 nM | 75 to 150 nM
C[C@H]1C[C@@H](NC(=O)CC2CS(=O)(=O)C2)CN(c2ccc(C#N)c3nccnc23)C1 [Example 207, N-[(3R,5S)-1-(8-cyanoquinoxalin-5-yl)-5-methylpiperidin-3-yl]-2-(1,1-dioxo-1λ^6-thietan-3-yl)acetamide] | > 150 nM | 75 to 150 nM
C[C@@H]1CN(c2ccc(C(F)(F)F)c3ncccc23)C[C@H](CN2CCC(N3CCOCC3)CC2)O1 [Example 329, 5-[(2R,6S)-2-Methyl-6-(4-morpholin-4-yl-piperidin-1-ylmethyl)-morpholin-4-yl]-8-trifluoromethyl-quinoline] | 75 to 150 nM | < 75 nM
C[C@H]1C[C@@H](NC(=O)CC2(N)CC2)CN(c2ccc(C#N)c3nccnc23)C1 [Example 120, 2-(1-aminocyclopropyl)-N-[(3R,5S)-1-(8-cyanoquinoxalin-5-yl)-5-methylpiperidin-3-yl]acetamide] | < 75 nM | < 75 nM
C[C@@H]1CN(c2ccc(C#N)c3nccnc23)C[C@H](CN2CCC(C(C)(C)O)C2)O1 (stereo partly drawn) [Example 222, 8-{(2S,6R)-2-[3-(1-Hydroxy-1-methyl-ethyl)-pyrrolidin-1-ylmethyl]-6-methyl-morpholin-4-yl}-quinoxaline-5-carbonitrile] | < 75 nM | 75 to 150 nM
N#Cc1ccc(N2C[C@H](NC(=O)CC3CCNCC3F)C[C@H](C(F)(F)F)C2)c2cccnc12 (stereo partly drawn) [Example 138, N-[(3R,5S)-1-(8-Cyano-quinolin-5-yl)-5-trifluoromethyl-piperidin-3-yl]-2-(3-fluoro-piperidin-4-yl)-acetamide] | < 75 nM | < 75 nM
C[C@H]1C[C@@H](NC(=O)[C@@H](N)C(C)(C)O)CN(c2ccc(C(F)(F)F)c3ncccc23)C1 [Example 170, (S)-2-Amino-3-hydroxy-3-methyl-N-[(3R,5S)-5-methyl-1-(8-trifluoromethyl-quinolin-5-yl)-piperidin-3-yl]-butyramide] | 75 to 150 nM | < 75 nM
C[C@H]1C[C@@H](NC(=O)NCCN(C)C)CN(c2ccc(C(F)(F)F)c3nccnc23)C1 [Example 141, 3-[2-(dimethylamino)ethyl]-1-[(3R,5S)-5-methyl-1-[8-(trifluoromethyl)quinoxalin-5-yl]piperidin-3-yl]urea] | < 75 nM | < 75 nM
N#Cc1ccc(N2C[C@@H](C(F)(F)F)O[C@@H](C(=O)NCC3(F)CCNCC3)C2)c2nccnc12 (single isomer, unassigned) [Example 305] | < 75 nM | < 75 nM
